Data from patent US8809368B2, “Compounds affecting gap junction activity” (Kansas State University Research Foundation, priority 2006, dated 2014).

Legend:
active caspase 3 = assay: Western blot of active caspase 3 in T47D cells; format: cell-based, human
Experimental: T47D cells were treated with 0, 200 nM, 500 nM and 1 μM PQ1 for 24 hours. Treatment with succinic acid was used as control. Western blot analysis was performed. Nitrocellulose membrane was blotted with the active form of caspase 3 antibodies (16 kDa). Actin acts as loading control. Graphical presentation of three experiments are presented with statistical significance, p<0.05.
Western Blot analysis: Cells were grown in RPMI media until they were 90% confluent in 75 cm2 flasks. Cells were dosed with 200, 500 nM of PQ1 for 24 hours. Cells were harvested with lysis buffer and centrifugated. Cell lysate was run on a 12% SDSpolyacrylamide gel electrophoresis (PAGE) and transferred to nitrocellulose membrane. Membrane was incubated with Caspase Antibody. Western blots were detected by enhanced chemiluminescence detection reagents.
The effect of PQ1 on apoptosis was further examined by detecting the active form of caspase 3. T47D cells were treated with […] PQ1 for 24 hours. Western blot analysis was performed using active form of caspase 3 antibodies. A 200 nM PQ1 causes 1.5-fold increase of active caspase 3 compared to control (FIG. 18). However, a decrease of caspase is observed in higher concentrations, a common effect in apoptotic protein expression. This is due to the cytotoxicity response of the cells.
(§1) Western Blot Analysis. Cells were grown in serum supplemented RPMI media until they were 90% confluent in 75 cm^2 flasks. Cells were kept in starving media containing phenol red-free DMEM with 5% charcoal dextran stripped serum, overnight. Cells were dosed with 0, 10, 100, 200 and 500 nM of PQ1 for 24 hours. Cells were washed three times with cold PBS and then were harvested using lysis buffer (20 mM Tris pH 7.5, 0.5 mM EDTA, 0.5 mM EGTA, 0.5% Triton X-100) with 1:1000 dilution of protease inhibitors (Sigma-Aldrich, Saint Louis, Mo.). Cell lysate was sonicated and centrifuged at 13,000 rpm for 30 minutes at 4° C. […] Western blots were detected by enhanced chemiluminescence detection reagents (Pierce, Rockford, Ill., USA).

Cx26 = assay: Western blot of Cx26 in T47D cells; format: cell-based, human; conditions: 10, 100, 200 and 500 nM, 24 hours
Experimental: T47D cells were dosed with PQ1 for 24 hours. The Western blot analysis was performed as described in Materials and Methods. Whole cell extract was analyzed for Cx 43, Cx32, and Cx26. Experiment was performed at least three times.
Furthermore, whole cell extract of PQ1 treatment was analyzed for the changes in gap junctional proteins, connexins. Cells were treated with 10, 100, 200, and 500 nM PQ1 for 24 hours. Western blot analysis was performed against Cx26, Cx32, and Cx43 (FIG. 17). […] Anti-tubulin was used as a loading control.
as §1

caspase-3 = assay: CoCl2 chemical hypoxia in R28 cells, caspase-3 activation by Western blot; format: cell-based, rat
Experimental: (A) About 70% confluent retinal R28 cells were treated with 100, 200 and 500 μM CoCl2 for 24 h with or without the pre-treatment of PQ1 (10 μM, 40 min) in a cell culture chamber (5% CO2, room air, 37° C.). Caspase-3 activation was determined by Western blotting in whole cell homogenates (WCH). (B) HIF1α stabilization was measured in the nuclear extracts (NE) after treatment with 500 μM CoCl2 at different time intervals with or without the pretreatment of PQ1. […] Levels of Cx43 and phosphoCx43-Ser368 are measured in WCH. β-Actin is used as a loading control.
Approximately 70% confluent retinal R28 cells were pre-incubated with PQ1 (10 μM, 40 min), followed by CoCl2 treatments at 100, 200 and 500 μM for different time periods in a cell culture chamber (5% CO2, room air, 37° C.). Hypoxia induction was confirmed by testing the hypoxia-inducible factor 1-α (HIF1α) protein expression levels in nuclear extracts by Western blotting.
Western blot. Western blotting was performed as described previously. […]
Next, it was determined whether PQ1 inhibition of gap junctions could prevent retinal neurosensory R28 cells from apoptosis using a chemical (CoCl2)-induced ischemia system as our model. […]

## COc1cc(NCCCN)c2nccc(C)c2c1Oc1cccc(C(F)(F)F)c1.O=C(O)CCC(=O)O [PQ1, 6-Methoxy-8-[(3-aminopropyl)amino]-4-methyl-5-(3-trifluoromethylphenyloxy) quinoline succinic acid]
Active caspase 3; 200 nM, 24 hours, compared to control
  increase of active caspase 3: 1.5 fold
Active caspase 3; 200 and 500 nM
  increase in the expression of active caspase 3: 50%
Active caspase 3; higher concentrations, 24 hours
  active caspase 3: decrease
Cx26
  Cx26 expression: no effect
caspase-3; PQ1 10 μM 40 min pre-incubation, then 500 μM CoCl2 24 h
  CoCl2-induced activation of caspase-3: blocked the activation of caspase-3 substantially
caspase-3; PQ1 alone
  activation of caspase-3: did not cause activation
